According to ChEMBL document CHEMBL1157114, “Synthesis and structure-activity relationships of a series of (1H-pyrazol-4-yl)acetamide antagonists of the P2X7 receptor” (Bioorg Med Chem Lett, 2010):
In brackets after ≈: the same amount, converted by molar mass.

Assays:
P2X purinoceptor 7 [1] = biological target: T1, P2X purinoceptor 7 (Homo sapiens, UniProt Q99572); experiment: Inhibition of human P2X7 receptor assessed as inhibition of ethidium bromide accumulation
T1 sequence (Q99572 whole entry): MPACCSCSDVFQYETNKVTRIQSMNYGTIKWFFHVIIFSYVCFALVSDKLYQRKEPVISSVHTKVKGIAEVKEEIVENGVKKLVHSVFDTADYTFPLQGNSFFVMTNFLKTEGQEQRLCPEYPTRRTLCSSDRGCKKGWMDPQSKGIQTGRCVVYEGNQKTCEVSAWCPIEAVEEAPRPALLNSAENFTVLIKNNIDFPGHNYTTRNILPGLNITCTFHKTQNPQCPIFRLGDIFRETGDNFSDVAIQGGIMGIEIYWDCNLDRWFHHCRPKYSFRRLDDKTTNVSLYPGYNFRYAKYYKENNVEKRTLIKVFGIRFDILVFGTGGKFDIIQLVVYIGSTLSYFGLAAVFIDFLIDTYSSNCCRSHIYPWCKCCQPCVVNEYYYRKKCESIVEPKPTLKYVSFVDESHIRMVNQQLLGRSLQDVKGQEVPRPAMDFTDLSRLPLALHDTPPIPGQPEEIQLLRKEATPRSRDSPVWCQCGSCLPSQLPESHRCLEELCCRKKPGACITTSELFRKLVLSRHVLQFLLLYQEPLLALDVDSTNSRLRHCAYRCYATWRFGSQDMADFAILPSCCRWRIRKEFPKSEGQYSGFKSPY

[2] = biological target: T2, P2X purinoceptor 7 (Homo sapiens) (UniProt Q99572); experiment: Inhibition of human P2X7 receptor assessed as inhibition of ethidium bromide accumulation relative to control
T2 sequence (whole entry): T1 sequence (Q99572 whole entry)

P2X purinoceptor 7 [3] = biological target: T3, P2X purinoceptor 7 (Rattus norvegicus, UniProt Q64663); experiment: Inhibition of rat P2X7 receptor assessed as inhibition of ethidium bromide accumulation
T3 sequence (Q64663 whole entry): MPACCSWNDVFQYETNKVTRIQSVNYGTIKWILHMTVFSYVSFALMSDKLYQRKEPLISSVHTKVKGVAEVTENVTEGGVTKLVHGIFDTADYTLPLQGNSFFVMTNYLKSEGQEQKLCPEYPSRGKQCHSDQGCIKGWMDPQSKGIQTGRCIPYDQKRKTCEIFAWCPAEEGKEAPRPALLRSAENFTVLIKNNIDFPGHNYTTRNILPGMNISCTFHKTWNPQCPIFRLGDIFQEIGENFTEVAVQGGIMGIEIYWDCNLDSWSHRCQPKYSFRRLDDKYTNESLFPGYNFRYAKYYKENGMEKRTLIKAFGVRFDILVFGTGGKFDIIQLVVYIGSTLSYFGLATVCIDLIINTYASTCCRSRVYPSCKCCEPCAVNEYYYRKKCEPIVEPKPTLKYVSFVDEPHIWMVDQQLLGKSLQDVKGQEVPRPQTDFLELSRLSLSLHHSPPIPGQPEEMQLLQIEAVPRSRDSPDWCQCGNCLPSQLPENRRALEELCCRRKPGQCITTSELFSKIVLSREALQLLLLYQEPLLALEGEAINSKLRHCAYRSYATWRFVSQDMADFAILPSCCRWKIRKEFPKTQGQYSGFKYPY

[4] = Aqueous solubility of the compound; type: physicochemical
[5] = Clearance in rat blood at 1 mg/kg, iv; type: ADME, organism-based; parameters: dose 1 mg/kg, route intravenous
[6] = Half life in rat blood at 1 mg/kg, iv; type: ADME, organism-based; parameters: dose 1 mg/kg, route intravenous
[7] = Volume of distribution at steady state in rat blood at 1 mg/kg, iv; type: ADME, organism-based; parameters: dose 1 mg/kg, route intravenous; conditions: read-out: Vdss
[8] = Tmax in rat blood at 3 mg/kg, po; type: ADME, organism-based; parameters: dose 3 mg/kg, route oral
[9] = Cmax in rat blood at 3 mg/kg, po; type: ADME, organism-based; parameters: dose 3 mg/kg, route oral
Rattus norvegicus = experiment: Dose normalized AUC in rat blood at 3 mg/kg, po; type: ADME, organism-based; parameters: dose 3 mg/kg, route oral; conditions: in vivo
[10] = Oral bioavailability in rat blood at 3 mg/kg, po; type: ADME, organism-based

SMILES | IC50 (P2X purinoceptor 7 [1]) | Imax [2] | further results
Cc1nn(-c2ccccc2)cc1CC(=O)NCc1ccc(F)cc1Cl | 158 nM | 100% | –
Cc1nn(-c2ccccc2)c(C)c1C(=O)NCc1ccc(F)cc1Cl | > 1000 nM | 100% | –
Cc1nn(-c2ccccc2)c(C)c1CC(=O)NCc1ccccc1 | > 1000 nM | 100% | –
Cc1sc(-c2ccccc2)nc1CC(=O)NCc1ccc(F)cc1Cl | > 1000 nM | 100% | –
Cc1nn(-c2ccccc2)c(C)c1CC(=O)N(C)Cc1ccc(F)cc1Cl | > 1000 nM | 100% | –
Cc1nn(-c2ncccn2)c(C)c1CC(=O)NCc1ccc(F)cc1Cl | 50.1 nM | 100% | –
Cc1nn(-c2ccccc2)c(C)c1CC(=O)NCc1cc(Cl)cc(Cl)c1 | > 631 nM | 100% | –
Cc1nc(-c2ccccc2)sc1CC(=O)NCc1ccc(F)cc1Cl | > 1000 nM | 100% | –
Cc1nn(-c2ccccc2)c(C)c1CC(=O)NCc1ccc(Cl)cc1Cl | 79.4 nM | 100% | –
Cc1nn(-c2ccccc2)c(C)c1CC(=O)NC(C)(C)c1ccccc1 | 126 nM | 100% | –
Cc1nn(-c2ccccc2)c(C)c1CC(=O)NC1CCCCCC1 | 158 nM | 100% | –
Cc1nn(CCO)c(C)c1CC(=O)NCc1ccc(F)cc1Cl | 200 nM | 100% | –
Cc1nn(-c2ccccc2)c(C)c1CC(=O)NCc1ccc(F)cc1Cl | 39.8 nM | 100% | IC50 (P2X purinoceptor 7 [3]): 100 nM; solubility [4]: 110 µg/mL (≈ 296 µM)
Cc1n[nH]c(C)c1CC(=O)NCc1ccc(F)cc1Cl | 20 nM | 100% | IC50 (P2X purinoceptor 7 [3]): 158 nM; clearance [5]: 15 mL/min/kg; half-life [6]: 1.7 h; Vd [7]: 1.6 L/kg; Tmax [8]: 1 h; Cmax [9]: 2920 nM; AUC (Rattus norvegicus): 58 kg·min/L; bioavailability [10]: 90%; solubility [4]: 732 µg/mL (≈ 2480 µM)
Cc1c(CC(=O)NCc2ccc(F)cc2Cl)cnn1-c1ccccc1 | 158 nM | 100% | –
Cc1nc(-c2ccccc2)n(C)c1CC(=O)NCc1ccc(F)cc1Cl | 50.1 nM | 100% | –
Cc1nn(Cc2cccnc2)c(C)c1CC(=O)NCc1ccc(F)cc1Cl | 126 nM | 100% | –
Cc1nn(-c2ccccc2)c(C)c1CC(=O)NCc1ccccc1Cl | 1000 nM | 100% | –
Cc1nn(-c2ccccc2)c(C)c1CNC(=O)Cc1ccc(F)cc1Cl | > 1000 nM | 100% | –
Cc1nn(-c2ccccc2)c(C)c1NC(=O)NCc1ccc(F)cc1Cl | 251 nM | 100% | –
Cc1nn(-c2ccccc2)c(C)c1CC(=O)NCc1cccc(Cl)c1Cl | 25.1 nM | 100% | –

Further lines, with some results ahead:

IC50 (P2X purinoceptor 7 [1]) | Imax [2] | SMILES | further results
> 1000 nM | 100% | Cc1oc(-c2ccccc2)nc1CC(=O)NCc1ccc(F)cc1Cl | –
10 nM | 100% | Cc1nn(-c2ccc(C(N)=O)cc2)c(C)c1CC(=O)NCc1ccc(F)cc1Cl | –
158 nM | 100% | Cc1nn(C)c(C)c1CC(=O)NCc1ccc(F)cc1Cl | –
> 1000 nM | 100% | COc1ccccc1CNC(=O)Cc1c(C)nn(-c2ccccc2)c1C | –
100 nM | 100% | COc1ccc(-n2nc(C)c(CC(=O)NCc3ccc(F)cc3Cl)c2C)cc1 | –
316 nM | 100% | Cc1nn(CCN(C)C)c(C)c1CC(=O)NCc1ccc(F)cc1Cl | –
1260 nM | 100% | Cc1nn(-c2ccccc2)c(C)c1Cc1nnc(Cc2ccc(Cl)cc2Cl)o1 | –
– | 100% | O=C(CN1CC(=O)N(c2ccccc2)C1=O)NCc1ccc(F)cc1Cl | –
> 1000 nM | 100% | Cc1cccnc1CNC(=O)Cc1c(C)nn(-c2ccccc2)c1C | –
63.1 nM | 100% | Cc1nn(-c2ccc(Cl)cc2)c(C)c1CC(=O)NCc1ccc(F)cc1Cl | –
316 nM | 100% | Cc1nn(Cc2ccccc2)c(C)c1CC(=O)NCc1ccc(F)cc1Cl | –
